Assay results: patent publication US6410558B1, “Fungicides for the control of take-all disease of plants” (Monsanto Technology LLC, priority 1991, dated 2002)

What was measured:
Ggt = assay: In vivo Assay: control of Ggt on wheat grown in pots of Ggt-infested soil, root disease rating; set-up: species or system Gaeumannomyces graminis var. tritici; details: Gaeumannomyces graminis, 672 h; 0.5 mg active ingredient per pot; 'Bergen' or 'Anza' wheat in Ggt-infested soil; after four weeks; vs untreated control; read-out: In vivo, percent disease control
Method: Compounds are tested for control of Ggt on ‘Bergen’ or ‘Anza’ varieties of wheat grown in 3-inch square pots containing soil infested with Ggt. The infestation is accomplished by mixing the soil with an inoculum prepared by growing Ggt on ¼ strength potato dextrose agar (4.875 g potato dextrose agar, 5.0 g Bacto agar, 500 mL distilled, deionized water) in plates and using plugs from the plates to infest sterile oats (400 cc whole oats, 350 mL deionized water, autoclaved). After a one-month incubation period at room temperature, the oats are dried and mixed with the soil at 4% v/v. Four wheat seeds are placed on top of the soil in each pot. The test compounds are prepared as an 1:9 acetone/water v/v solution containing 0.18% Tween® 20 to provide a treatment rate of 0.5 mg active ingredient per pot, treated with 3 mL test solution per pot. Five pots are used for each treatment level and the controls, which are untreated, inoculated and non-inoculated pots. After one hour drying time, the seeds are covered with more of the appropriate soil and a layer of vermiculite. The pots are placed in a growth chamber and watered each day. After four weeks, each pot is evaluated for evidence of disease by examination of the seminal roots of each plant under a dissecting microscope. A 0 to 5 rating scale having the following meanings is used:
0=no runner hyphae or lesions present
1=runner hyphae and a few small lesions present on <10% of root system
2=runner hyphae and small lesions present on 10-25% of root system
3=runner hyphae and lesions present on 25-50% of root system
4=runner hyphae and many, large, coalescing lesions on >50% of root system
5=root system and culm completely inundated with lesions and runner hyphae
From each set of five replicates a high and low score is eliminated and a replicate mean is calculated by the average of the remaining three scores. This mean score is then compared to the untreated control score and a percent disease control is calculated.

[1] = test system: Gaeumannomyces graminis var. tritici (Ggt); assay: In vitro Assay: mycelial growth of Ggt on minimal media agar plates containing test compound; assay type: cell-based; details: Gaeumannomyces graminis, dark, 19-20° C., 4 to 5 days, diameter of mycelial growth; for inhibition at 0.1 ppm: 0.1 ppm in minimal media agar, read-out: In vitro (ppm) 0.1, Percent Inhibition; for inhibition at 1 ppm: 1 ppm in minimal media agar, read-out: In vitro (ppm) 1, Percent Inhibition; for inhibition at 10 ppm: 10 ppm in minimal media agar, read-out: In vitro (ppm) 10, Percent Inhibition
How it was run: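 Ggt mycelial diameter read after 4 to 5 days in darkness at 19-20° C, from three 4-mm plugs placed on Czapek Dox minimal agar containing test compound delivered in acetone. Inhibition expressed as percent versus untreated plates, plug size (4 mm) subtracted from both.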

Row | Structure (SMILES) | pest or weed control at 0.5 mg/pot (Ggt) | inhibition at 0.1 ppm [1] | inhibition at 1 ppm [1] | inhibition at 10 ppm [1]
1 | CCNC(=O)c1c([Si](C)(C)C)ccc(Br)c1Cl [Example 220, 3-Bromo-2-chloro-N-ethyl-6-(trimethylsilyl)benzamide] | 97% | 75% | 100% | 100%
2 | CCNC(=O)c1c(Cl)cccc1[Si](C)(C)CC [Example 212, 2-Chloro-N-ethyl-6-(ethyldimethylsilyl)benzamide] | 96% | 77% | 54% | 90%
3 | CCNC(=O)c1c(Cl)cccc1[Si](C)(C)CCl [Example 83, N-Ethyl-2-chloro-6-[(chloromethyl)dimethylsilyl]benzamide] | 99% | 100% | 100% | 100%
4 | CCNC(=O)c1cc(N)ccc1[Si](C)(C)C [Example 217, 5-Amino-N-ethyl-2-(trimethylsilyl)benzamide] | 0% | 16% | 68% | 100%
5 | CCN(CC)C(=O)c1c(C(F)F)ccc(F)c1[Si](C)(C)C [Example 52, N,N-Diethyl-6-(difluoromethyl)-3-fluoro-2-(trimethylsilyl)benzamide] | 96% | 53% | 81% | 98%
6 | CCNC(=O)c1c([Si](C)(C)C)sc2c1CCCC2 [Example 270, N-Ethyl-2-(trimethylsilyl)-4,5,6,7-tetrahydrobenzo[B]thiophene-3-carboxamide] | 87% | 96% | 100% | 100%
7 | CCNC(=O)c1c(Cl)ccc(Br)c1[Si](C)(C)C [Example 232, 3-Bromo-6-chloro-N-ethyl-2-(trimethylsilyl)benzamide] | 78% | 92% | 97% | 95%
8 | CCNC(=O)c1sc(Cl)cc1[Si](C)(C)C [Example 254, 5-Chloro-N-ethyl-3-(trimethylsilyl)-2-thiophenecarboxamide] | 40% | 97% | 97% | 100%
9 | CCN(CC)C(=O)c1c(CF)cccc1[Si](C)(C)C [Example 98, N,N-Diethyl-2-(fluoromethyl)-6-(trimethylsilyl)benzamide] | 97% | 22% | 81% | 100%
10 | CCN(CC)C(=O)c1c(Cl)ccc(F)c1[Si](C)(C)C [Example 38, 6-Chloro-N,N-diethyl-3-fluoro-2-(trimethylsilyl)benzamide] | 95% | 53% | 79% | 100%
11 | CCCN(CCC)C(=O)c1ccccc1[Si](C)(C)C [Example 13, N,N-Dipropyl-2-(trimethylsilyl)benzamide] | 13% | 7% | 17% | 64%
12 | C=CC[Si](C)(C)c1cccc(Cl)c1C(=O)NCC [Example 179, 2-Chloro-6-(dimethyl-2-propenylsilyl)-N-ethylbenzamide] | 97% | 85% | 88% | 91%
13 | CCNC(=O)c1sc(Br)cc1[Si](C)(C)C [Example 266, 5-Bromo-N-ethyl-3-(trimethylsilyl)-2-thiophenecarboxamide] | 4% | 21% | 61% | 100%
14 | CCN(CC)C(=O)c1c(Cl)cccc1C[Si](C)(C)C [Example 166, 2-Chloro-N,N-diethyl-6-[(trimethylsilyl)methyl]benzamide] | 15% | 4% | < 0% | 73%
15 | CCNC(=O)c1cc([Si](C)(C)C)sc1[Si](C)(C)C [Example 269, N-Ethyl-2,5-bis(trimethylsilyl)-3-thiophenecarboxamide] | 4% | < 0% | 91% | 100%
16 | CC[C@@H](C)NC(=O)c1c(Cl)cccc1[Si](C)(C)C [Example 151, 2-Chloro-N-(1-methylpropyl)-6-(trimethylsilyl)benzamide, (r)-] | 97% | < 0% | 71% | 57%
17 | CCNC(=O)c1cccc(F)c1[Si](C)(C)C [Example 12, N-Ethyl-3-fluoro-2-(trimethylsilyl)benzamide] | 95% | 29% | 83% | 100%
18 | CCNC(=O)c1c(C)cccc1N(C)C(C)(C)C [Example 191, N-Ethyl-2-[(1,1-dimethylethyl)methylamino]-6-methylbenzamide] | 88% | 60% | 88% | 88%
19 | CCNC(=O)c1c([Si](C)(C)C)ccc(C(F)F)c1Cl [Example 224, 2-Chloro-3-(difluoromethyl)-N-ethyl-6-(trimethylsilyl)benzamide] | 21% | < 0% | 27% | 93%
20 | CSNC(=O)c1c(Cl)cccc1[Si](C)(C)C [Example 174, 2-Chloro-N-(methylthio)-6-(trimethylsilyl)benzamide] | 0% | 12% | 65% | –
21 | C[Si](C)(C)c1cccc(Cl)c1C(=O)NCCBr [Example 153, N-(2-Bromoethyl)-2-chloro-6-(trimethylsilyl)benzamide] | 29% | < 0% | 88% | 91%
22 | CCN(C)C(=O)c1c(Cl)cccc1[Si](C)(C)C [Example 22, 2-Chloro-N-ethyl-N-methyl-6-(trimethylsilyl)benzamide] | 91% | 13% | < 0% | 46%
23 | C[Si](C)(C)c1cccc(Cl)c1C(=O)NC1CC1 [Example 34, 2-Chloro-N-cyclopropyl-6-(trimethylsilyl)benzamide] | 100% | 97% | 100% | 100%
24 | CCN(CC)C(=S)c1c(C)ccc(F)c1[Si](C)(C)C [Example 53, N,N-Diethyl-3-fluoro-6-methyl-2-(trimethylsilyl)thiobenzamide] | 65% | 9% | 19% | 95%
25 | CCCCCCCCNC(=O)c1c(Cl)cccc1[Si](C)(C)C [Example 17, 2-Chloro-N-octyl-6-(trimethylsilyl)-benzamide] | < 0% | 59% | 64% | 64%
26 | CCN(C(=O)c1ccccc1C(C)(C)C)C(OC)C(C)(C)C (stereo not drawn) [Example 186, 2-(1,1-Dimethylethyl)-N-ethyl-N-(1-methoxy-2,2-dimethylpropyl)benzamide] | – | < 0% | < 0% | 67%
27 | CCNC(=O)c1c(F)cccc1[S+]([O-])C(C)(C)C (stereo not drawn) [Example 194, 2-[(1,1-Dimethylethyl)sulfinyl]-N-ethyl-6-fluorobenzamide] | – | 82% | 100% | 100%
28 | CC(C)CNC(=O)c1c(Cl)cccc1[Si](C)(C)C [Example 162, 2-Chloro-N-(2-methylpropyl)-6-(trimethylsilyl)benzamide] | – | 3% | < 0% | 57%
29 | CCN(CO)C(=O)c1c(C)cccc1[Si](C)(C)C [Example 143, N-Ethyl-N-(hydroxymethyl)-2-methyl-6-(trimethylsilyl)benzamide] | – | 5% | 13% | 74%
